Measured values: article PMC5947727, “Crystal structures of Lymphocytic choriomeningitis virus endonuclease domain complexed with diketo-acid ligands” (IUCrJ, 2018)

Experiments:
[1] = molecular target: T1, LCMV endonuclease domain (ENDO, ENDO-WT) (Lymphocytic choriomeningitis virus (strain Armstrong), UniProt P14240); assay: biochemical; assay type: binding
T1 construct: gene L; N-terminal endonuclease domain of L (residues 1-196), N-terminal hexahistidine tag, pDEST14, E. coli Rosetta (DE3) pLysS; IMAC, Q Sepharose, Superdex 200

[2] = molecular target: T2, LCMV endonuclease domain (ENDO, ENDO-WT) (Lymphocytic choriomeningitis virus (strain Armstrong), UniProt P14240, D119A); assay: biochemical; assay type: binding
T2 construct: gene L; N-terminal endonuclease domain of L (residues 1-196), N-terminal hexahistidine tag, pDEST14, E. coli Rosetta (DE3) pLysS; IMAC, Q Sepharose, Superdex 200

## O=C(O)C(O)=CC(=O)c1ccc(-c2ccccc2)cc1 [compound 3, 2-hydroxy-4-(biphenyl-4-yl)-4-oxobut-2-enoic acid]
[1]
  Kd: 50 ± 20 nM

## O=C(O)/C(O)=C/C(=O)C1(Cc2ccc(Cl)cc2)CCN(Cc2ccccc2)CC1 [compound 2, (Z)-4-{1-benzyl-4-[(4-chlorophenyl)methyl]piperidin-4-yl}-2-hydroxy-4-oxobut-2-enoic acid]
[2]
  Kd: 890 ± 60 nM
[1]
  Kd: 510 ± 110 nM

## O=C(O)C(O)=CC(=O)c1ccc2ccc3ccccc3c2c1 [compound 4, 2-hydroxy-4-oxo-4-(phenanthren-3-yl)but-2-enoic acid]
[1]
  Kd: 250 ± 70 nM

## O=C(O)C(=O)CC(=O)c1ccccc1 [compound 1, 2,4-dioxo-4-phenylbutanoic acid]
[2]
  Kd: 18800 ± 3880 nM
[1]
  Kd: 5380 ± 2060 nM
